Measured values: PubChem BioAssay (NCI)
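Protocol summary: plate cells (96-well), add compound at 5 concentrations, incubate 48 h, interpolate endpoints linearly. GI50 is the concentration that inhibits growth by half. TGI denotes the concentration required for complete inhibition of growth.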

Tests used:
Assay in all cases: inhibition of tumour cell growth, NCI panel, 48 h
[1] = tested on: MCF7 breast
[2] = tested on: ACHN renal
[3] = tested on: MDA-MB-231 breast
[4] = tested on: SN12C renal
[5] = tested on: PC-3 prostate
[6] = tested on: HCT-116 colon
[7] = tested on: A498 renal
[8] = tested on: COLO 205 colon
[9] = tested on: SK-MEL-2 melanoma
[10] = tested on: SK-MEL-5 melanoma
[11] = tested on: SW-620 colon
[12] = tested on: HCC-2998 colon
[13] = tested on: CCRF-CEM leukemia
[14] = tested on: RPMI-8226 leukemia
[15] = tested on: M14 melanoma
[16] = tested on: MOLT-4 leukemia
[17] = tested on: NCI-H460 lung
[18] = tested on: OVCAR-3 ovarian
[19] = tested on: OVCAR-5 ovarian
[20] = tested on: NCI-H23 lung
[21] = tested on: U251 CNS
[22] = tested on: BT-549 breast
[23] = tested on: CAKI-1 renal
[24] = tested on: A549 NSCLC
[25] = tested on: SF-268 CNS
[26] = tested on: KM12 colon
[27] = tested on: K-562 leukemia
[28] = tested on: HCT-15 colon
[29] = tested on: NCI-H522 lung
[30] = tested on: 786-0 renal
[31] = tested on: SNB-19 CNS
[32] = tested on: OVCAR-4 ovarian
[33] = tested on: EKVX NSCLC
[34] = tested on: HOP-62 NSCLC
[35] = tested on: SNB-75 CNS
[36] = tested on: NCI/ADR-RES ovarian
[37] = tested on: SK-MEL-28 melanoma
[38] = tested on: HT29 colon
[39] = tested on: SK-OV-3 ovarian
[40] = tested on: UO-31 renal
[41] = tested on: NCI-H226 lung
[42] = tested on: IGROV1 ovarian
[43] = tested on: UACC-62 melanoma
[44] = tested on: MALME-3M melanoma
[45] = tested on: HS 578T breast
[46] = tested on: LOX IMVI melanoma
[47] = tested on: TK-10 renal
[48] = tested on: OVCAR-8 ovarian
[49] = tested on: DU-145 prostate
[50] = tested on: UACC-257 melanoma
[51] = tested on: RXF 393 renal
[52] = tested on: MDA-MB-435
[53] = tested on: SF-539 CNS
[54] = tested on: SF-295 CNS
[55] = tested on: HOP-92 NSCLC
[56] = tested on: HL-60(TB) leukemia
[57] = tested on: T-47D breast
[58] = tested on: SR leukemia

## COc1cc(/C=N/Nc2ncnc3c2cnn3C(C)C)ccc1O
[1]
  GI50: 4.68 µM
  TGI: 16.1 µM
[2]
  GI50: 5.95 µM
  TGI: > 25 µM
[3]
  GI50: 6.27 µM
  TGI: > 25 µM
[4]
  GI50: 8.27 µM
  TGI: > 25 µM
[5]
  GI50: 5.07 µM
  TGI: > 25 µM
[6]
  GI50: 8.02 µM
  TGI: > 25 µM
[7]
  GI50: 8.58 µM
  TGI: 24.8 µM
[8]
  GI50: 12.2 µM
  TGI: > 25 µM
[9]
  GI50: 6.82 µM
  TGI: 18.7 µM
[10]
  GI50: 8.1 µM
  TGI: > 25 µM
[11]
  GI50: 8.41 µM
  TGI: > 25 µM
[12]
  GI50: 17.3 µM
  TGI: > 25 µM
[13]
  GI50: 8.07 µM
  TGI: > 23.1 µM
[14]
  GI50: 9.76 µM
  TGI: > 17.8 µM
[15]
  GI50: 11.8 µM
  TGI: > 25 µM
[16]
  GI50: 6.53 µM
  TGI: > 20.7 µM
[17]
  GI50: 8.34 µM
  TGI: > 25 µM
[18]
  GI50: 8.47 µM
  TGI: > 25 µM
[19]
  GI50: 8.83 µM
  TGI: > 25 µM
[20]
  GI50: 6.05 µM
  TGI: > 25 µM
[21]
  GI50: 8.11 µM
  TGI: > 25 µM
[22]
  GI50: > 20400 nM
  TGI: > 25 µM
[23]
  GI50: 6.43 µM
  TGI: > 25 µM
[24]
  GI50: 9.92 µM
  TGI: > 25 µM
[25]
  GI50: 7.68 µM
  TGI: > 22.8 µM
[26]
  GI50: 6.2 µM
  TGI: 24.7 µM
[27]
  GI50: 7.2 µM
  TGI: > 25 µM
[28]
  GI50: 11 µM
  TGI: > 25 µM
[29]
  GI50: 6.78 µM
  TGI: > 25 µM
[30]
  GI50: 10.8 µM
  TGI: > 25 µM
[31]
  GI50: 17 µM
  TGI: > 25 µM
[32]
  GI50: 14.4 µM
  TGI: > 25 µM
[33]
  GI50: 11.6 µM
  TGI: > 25 µM
[34]
  GI50: 6.5 µM
  TGI: > 25 µM
[35]
  GI50: 506 nM
  TGI: 9.57 µM
[36]
  GI50: 6.95 µM
  TGI: > 25 µM
[37]
  GI50: 8.08 µM
  TGI: > 25 µM
[38]
  GI50: 8.18 µM
  TGI: > 25 µM
[39]
  GI50: 10.1 µM
  TGI: > 25 µM
[40]
  GI50: 3560 nM
  TGI: 17.3 µM
[41]
  GI50: 9.27 µM
  TGI: > 25 µM
[42]
  GI50: 7.56 µM
  TGI: 20.5 µM
[43]
  GI50: 6.98 µM
  TGI: > 20.9 µM
[44]
  GI50: 15 µM
  TGI: > 25 µM
[45]
  GI50: 5.04 µM
  TGI: 24.8 µM
[46]
  GI50: 3790 nM
  TGI: > 13.7 µM
[47]
  GI50: 8.3 µM
  TGI: 21.3 µM
[48]
  GI50: 6.37 µM
  TGI: > 25 µM
[49]
  GI50: 8.03 µM
  TGI: > 25 µM
[50]
  GI50: 14.9 µM
  TGI: > 25 µM
[51]
  GI50: 4.66 µM
  TGI: 12.7 µM
[52]
  GI50: 7.66 µM
  TGI: > 25 µM
[53]
  GI50: 4.76 µM
  TGI: 15.2 µM
[54]
  GI50: 9.41 µM
  TGI: > 25 µM
[55]
  GI50: 357 nM
  TGI: 4.99 µM
[56]
  GI50: 4.07 µM
  TGI: 11.9 µM
[57]
  GI50: 5.31 µM
  TGI: > 21.5 µM

## Cc1oc2nc[nH]c(=O)c2c1C(=O)/C=C/c1ccc(Cl)cc1
[1]
  GI50: 1.39 µM
  TGI: 12.3 µM
[58]
  GI50: 1510 nM
  TGI: 6.3 µM
[2]
  GI50: 1.99 µM
  TGI: 6.04 µM
[3]
  GI50: 2.64 µM
  TGI: 14.6 µM
[4]
  GI50: 2.79 µM
  TGI: 14.2 µM
[5]
  GI50: 2.49 µM
  TGI: 8.76 µM
[6]
  GI50: 1.59 µM
  TGI: 3.94 µM
[7]
  GI50: 1.48 µM
  TGI: 5.83 µM
[8]
  GI50: 1.9 µM
  TGI: 4.22 µM
[9]
  GI50: 3.13 µM
  TGI: 12.3 µM
[10]
  GI50: 2.25 µM
  TGI: 5.85 µM
[11]
  GI50: 2.53 µM
  TGI: 7.19 µM
[12]
  GI50: 1.79 µM
  TGI: 3.65 µM
[13]
  GI50: 1.81 µM
  TGI: 6.94 µM
[14]
  GI50: 1.66 µM
  TGI: 5.16 µM
[15]
  GI50: 1.96 µM
  TGI: 6.72 µM
[16]
  GI50: 2.75 µM
  TGI: 9.98 µM
[17]
  GI50: 2.56 µM
  TGI: 7.03 µM
[18]
  GI50: 2.3 µM
  TGI: 7.83 µM
[19]
  GI50: 3.17 µM
  TGI: 12 µM
[20]
  GI50: 2.51 µM
  TGI: 15.3 µM
[21]
  GI50: 1.97 µM
  TGI: 5.01 µM
[22]
  GI50: 2240 nM
  TGI: 6.55 µM
[23]
  GI50: 3.06 µM
  TGI: 22.8 µM
[24]
  GI50: 2.66 µM
  TGI: 11.2 µM
[25]
  GI50: 3.17 µM
  TGI: 16.8 µM
[26]
  GI50: 2.97 µM
  TGI: 9.16 µM
[27]
  GI50: 1.82 µM
  TGI: 11.3 µM
[28]
  GI50: 1.29 µM
  TGI: 3.51 µM
[29]
  GI50: 1.79 µM
  TGI: 5.74 µM
[30]
  GI50: 3.02 µM
  TGI: 10.3 µM
[31]
  GI50: 3.28 µM
  TGI: 13.7 µM
[32]
  GI50: 4.43 µM
  TGI: 16.1 µM
[33]
  GI50: 2.37 µM
  TGI: 15.9 µM
[34]
  GI50: 2.83 µM
  TGI: 12.6 µM
[36]
  GI50: 2.44 µM
  TGI: 21 µM
[37]
  GI50: 2.51 µM
  TGI: 8.77 µM
[38]
  GI50: 2.9 µM
  TGI: 10.6 µM
[39]
  GI50: 3.09 µM
  TGI: 13.8 µM
[40]
  GI50: 1090 nM
  TGI: 11 µM
[41]
  GI50: 1.96 µM
  TGI: 7.36 µM
[42]
  GI50: 1.82 µM
  TGI: 10.8 µM
[43]
  GI50: 1.64 µM
  TGI: 5.37 µM
[44]
  GI50: 2.13 µM
  TGI: 8.29 µM
[45]
  GI50: 3.66 µM
  TGI: > 100 µM
[46]
  GI50: 1600 nM
  TGI: 3.32 µM
[47]
  GI50: 5.09 µM
  TGI: 13.6 µM
[48]
  GI50: 2.67 µM
  TGI: 31.9 µM
[49]
  GI50: 2.82 µM
  TGI: 11.3 µM
[50]
  GI50: 2.72 µM
  TGI: 12.7 µM
[51]
  GI50: 1.97 µM
  TGI: 4.98 µM
[52]
  GI50: 2.4 µM
  TGI: 8.64 µM
[53]
  GI50: 2.37 µM
  TGI: 6.71 µM
[54]
  GI50: 4.5 µM
  TGI: 16 µM
[55]
  GI50: 1470 nM
  TGI: 7.18 µM
[56]
  GI50: 2.64 µM
  TGI: 7.78 µM
[57]
  GI50: 1.72 µM
  TGI: 7.82 µM
